Measured values taken from US20250170126A1 (MITSUBISHI TANABE PHARMA CORPORATION, priority 2022, published 2025).

Biological target: Human B0AT1 (Homo sapiens (Human), UniProt Q695T7)
Assay: hB0AT1 inhibitory test (phenylalanine uptake)
Assay type: cell-based
Conditions: Human B0AT1 stable expression CHO cells; [3H]-L-phenylalanine uptake, phenylalanine 0.25 mM
Method: A test compound dissolved in dimethyl sulfoxide (DMSO) was added to a 96 well plate for solid phase radioactivity measurement containing a scintillator at the bottom of the well (final concentration of DMSO 0.5%). DMSO alone as a control and DMSO containing N-(4-bromophenyl)-3,5-dichloro-2-hydroxybenzamide (final concentration […]) for the is measurement of B0AT1 non-specific uptake were similarly added at 0.5 μL per well. Human B0AT1 stable expression CHO cells suspended in a buffer (buffer containing 96 mM sodium chloride, 2 mM potassium chloride, 1.8 mM calcium chloride, 1 mM magnesium chloride, 0.01% bovine serum albumin, and 10 mM 2-[4-(2-hydroxyethyl)-1-piperazinyl]ethanesulfonic acid) were added by 90 μL to 75000 cells/well. After standing at ordinary temperature for 30 min or longer, the cells were subjected to a phenylalanine uptake experiment. A buffer containing L-phenylalanine and [3,4,5-3H]-L-phenylalanine was added by 10 μL per well (final concentration of phenylalanine 0.25 mM), and the radioactivity of the plate bottom surface at ordinary temperature was measured with a scintillation counter over time, and the radioactivity value after 100 to 200 min was analyzed. A value obtained by subtracting the B0AT1 non-specific uptake from the control uptake was taken as 100%, and the concentration necessary for each test compound to achieve 50% inhibition (IC50 value) was determined by nonlinear regression using a logistic model.

Human B0AT1, sequence (Q695T7 whole entry): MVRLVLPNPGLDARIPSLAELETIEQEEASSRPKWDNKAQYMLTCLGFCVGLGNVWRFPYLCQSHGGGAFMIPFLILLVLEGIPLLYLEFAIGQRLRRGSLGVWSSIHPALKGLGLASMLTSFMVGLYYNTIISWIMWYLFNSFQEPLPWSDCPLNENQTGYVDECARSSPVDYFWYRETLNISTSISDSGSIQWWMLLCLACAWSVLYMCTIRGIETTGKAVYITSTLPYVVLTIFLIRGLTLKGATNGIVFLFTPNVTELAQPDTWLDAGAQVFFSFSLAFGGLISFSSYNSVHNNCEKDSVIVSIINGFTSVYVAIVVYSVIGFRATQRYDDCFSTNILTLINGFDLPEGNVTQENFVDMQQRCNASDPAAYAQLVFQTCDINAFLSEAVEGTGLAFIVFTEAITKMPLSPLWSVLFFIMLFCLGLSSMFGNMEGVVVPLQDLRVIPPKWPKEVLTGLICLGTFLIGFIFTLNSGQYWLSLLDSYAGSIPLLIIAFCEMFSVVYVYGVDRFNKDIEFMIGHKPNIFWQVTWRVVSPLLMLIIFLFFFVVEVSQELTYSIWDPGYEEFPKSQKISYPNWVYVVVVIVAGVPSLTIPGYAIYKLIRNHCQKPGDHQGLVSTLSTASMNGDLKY

Structure (SMILES)	IC50
CCN(CC)C(=O)c1cnn2c1CN(C(=O)CNC(=O)/C=C/c1ccc(C(F)(F)F)cc1)CC2 [I-223]	41 nM
CN1CCN(C(=O)CNC(=O)/C=C/c2ccc(C(F)(F)F)cc2)C(c2ccccc2)C1 (centres unmarked) [I-45]	24 nM
COCCN(Cc1cc(C)n(C)n1)C(=O)CNC(=O)/C=C/c1ccc(C(F)(F)F)cc1 [I-58]	353 nM
CNC(=O)CC(COC)N(CCOC)C(=O)CNC(=O)/C=C/c1ccc(C(F)(F)F)cc1 (centres unmarked) [I-130, 4-methoxy-3-[2-methoxyethyl-[2-[[(E)-3-[4-(trifluoromethyl)phenyl]prop-2-enoyl]amino]acetyl]amino]-N-methylbutanamide]	486 nM
O=C(/C=C/c1ccc(C(F)(F)F)cc1F)NCC(=O)N1CCc2cc(Br)cc(F)c2C1 [I-236]	34 nM
NS(=O)(=O)c1ccc2c(c1)CCN(C(=O)CNC(=O)/C=C/c1ccc(C(F)(F)F)cc1)C2 [I-220]	43 nM
O=C(/C=C/c1ccc(C(F)(F)F)cc1)NCC(=O)N1CCn2cncc2C1 [I-23]	112 nM
Cn1nnc2c1CCN(C(=O)CNC(=O)/C=C/c1ccc(C(F)(F)F)cc1)C2 [I-100]	79 nM
CCCCOc1ccc(/C=C/C(=O)NCC(=O)N2CCN(C)CC2)cc1 [I-113]	178 nM
O=C(/C=C/c1ccc(C(F)(F)F)cc1)NCC(=O)N1CCc2oncc2C1 [I-39]	29 nM
O=C(/C=C/c1ccc(C(F)(F)F)cc1)NCC(=O)N1CCCC(n2cccn2)C1 (centres unmarked) [I-74]	1310 nM
COc1nccc2c1CCN(C(=O)CNC(=O)/C=C/c1ccc(C(F)(F)F)cc1)C2 [I-90]	23 nM
O=C(/C=C/c1ccc(C(F)(F)F)cc1)NCC(=O)N1CCc2ccncc2C1 [I-36]	15 nM
COCCN(Cc1noc(C)n1)C(=O)CNC(=O)/C=C/c1ccc(C(F)(F)F)cc1 [I-52]	56 nM
COCCN(Cc1ncccc1Cl)C(=O)CNC(=O)/C=C/c1ccc(C(F)(F)F)cc1 [I-55]	122 nM
Cc1nnc(CN(CC2(F)CCC2)C(=O)CNC(=O)/C=C/c2ccc(C(F)(F)F)cc2)o1 [I-212]	43 nM
Cn1ncc2c1CN(C(=O)CNC(=O)/C=C/c1ccc(C(F)(F)F)cc1)C2 [I-66]	122 nM
O=C(/C=C/c1ccc(C(F)(F)F)cc1)NCC(=O)N1CCn2ccnc2C1 [I-21]	65 nM
CN1CCN(C(=O)CNC(=O)/C=C/c2ccc(OCC(F)(F)C(F)F)cc2)CC1 [I-109]	267 nM
O=C(/C=C/c1ccc(C(F)(F)F)cc1)NCC(=O)N1CCn2ncc(C(=O)O)c2C1 [I-274]	531 nM
O=C(/C=C/c1ccc(C(F)(F)F)cc1)NCC(=O)N1CCn2nccc2C1 [I-93]	31 nM
O=C(/C=C/c1ccc(C(F)(F)F)cc1)NCC(=O)N1Cc2ccccc2C(c2ccccc2)C1 (centres unmarked) [I-183]	80 nM
CNC(=O)[C@H]1CN(C)CCN1C(=O)CNC(=O)/C=C/c1ccc(C(F)(F)F)cc1 [I-139, (2R)-N,4-dimethyl-1-[2-[[(E)-3-[4-(trifluoromethyl)phenyl]prop-2-enoyl]amino]acetyl]piperazine-2-carboxamide]	133 nM
O=C(/C=C/c1ccc(C(F)(F)F)cc1)NCC(=O)N1CCN2C(=O)OC[C@H]2C1 [I-32]	212 nM
O=C(/C=C/c1ccc(C(F)(F)F)cc1)NCC(=O)N1CCn2nc(C(F)F)cc2C1 [I-282, (E)-N-[2-[2-(difluoromethyl)-6,7-dihydro-4H-pyrazolo [1,5-a]pyrazin-5-yl]-2-oxoethyl]-3-[4-(trifluoromethyl)phenyl]prop-2-enamide]	26 nM
O=C(/C=C/c1ccc(OC(F)F)cc1)NCC(=O)N1CCn2nccc2C1 [I-89]	94 nM
O=C(/C=C/c1ccc(C(F)(F)F)cc1)NCC(=O)N1CCOC(c2ccccc2)C1 (centres unmarked) [I-14]	815 nM

Structure (SMILES)	IC50
COC1CN(C(=O)CNC(=O)/C=C/c2ccc(C(F)(F)F)cc2)Cc2ccc(Br)cc21 (centres unmarked) [I-217]	114 nM
COCC1Cn2ncnc2CN1C(=O)CNC(=O)/C=C/c1ccc(C(F)(F)F)cc1 (centres unmarked) [I-219]	262 nM
COCCN(C(=O)CNC(=O)/C=C/c1ccc(C(F)(F)F)cc1)C(C)COC (centres unmarked) [I-11]	282 nM
O=C(/C=C/c1ccc(C(F)(F)F)cc1)NCC(=O)N1CC[C@H](C(=O)O)C1 [I-125, (3S)-1-[2-[[(E)-3-[4-(trifluoromethyl)phenyl]prop-2-enoyl]amino]acetyl]pyrrolidine-3-carboxylic acid]	1620 nM
CN1CCN(C(=O)CNC(=O)/C=C/c2ccc(OC(F)(F)F)cc2)CC1=O [I-118]	137 nM
CC1CCN(C(=O)CNC(=O)/C=C/c2ccc(C(F)(F)F)cc2)CC1 [I-26]	1440 nM
O=C(/C=C/c1ccc(C(F)(F)F)cc1)NCC(=O)N1Cc2cccnc2C1 [I-65]	70 nM
O=C(/C=C/c1ccc(C(F)(F)F)cc1)NCC(=O)N1CCc2cncnc2C1 [I-84]	54 nM
O=C(/C=C/c1ccc(C(F)(F)F)cc1)NCC(=O)N1CCn2c(n[nH]c2=O)C1 [I-38]	46 nM
CN1CCN(C(=O)CNC(=O)/C=C/c2ccc(-c3ccc(C(F)(F)F)cc3)cc2)CC1 [I-128]	678 nM
Cc1nc2c(s1)CN(C(=O)CNC(=O)/C=C/c1ccc(C(F)(F)F)cc1)C2 [I-61]	81 nM
O=C(/C=C/c1ccc(C(F)(F)F)cc1)NCC(=O)N1CCCc2cnccc21 [I-186]	10 nM
CCCOc1ccc(/C=C/C(=O)NCC(=O)N2CCN(C)CC2)cc1 [I-108]	104 nM
C[C@H]1Cn2nccc2CN1C(=O)CNC(=O)/C=C/c1ccc(C(F)(F)F)cc1 [I-181]	60 nM
CC(C)CNC(=O)C1CN(C(=O)CNC(=O)/C=C/c2ccc(C(F)(F)F)cc2)Cc2ccccc21 (centres unmarked) [I-278, N-(2-methylpropyl)-2-[2-[[(E)-3-[4-(trifluoromethyl)phenyl]prop-2-enoyl]amino]acetyl]-3,4-dihydro-1H-isoquinoline-4-carboxamide]	87 nM
O=C(/C=C/c1ccc(C(F)(F)F)cc1)NCC(=O)N1CCN2C(=O)NCC2C1 (centres unmarked) [I-44]	261 nM
CN1CCN(C(=O)CNC(=O)/C=C/c2ccc(C(F)(F)F)cc2)[C@@H](C(=O)N(C)C)C1 [I-138, (2R)-N,N,4-trimethyl-1-[2-[[(E)-3-[4-(trifluoromethyl)phenyl]prop-2-enoyl]amino]acetyl]piperazine-2-carboxamide]	406 nM
O=C(/C=C/c1ccc(C(F)(F)F)cc1)NCC(=O)N1CCNC(=O)CC1 [I-15]	228 nM
CC1CN(C(=O)CNC(=O)/C=C/c2ccc(C(F)(F)F)cc2)Cc2ccccc21 (centres unmarked) [I-182]	168 nM
O=C(/C=C/c1ccc(C(F)(F)F)cc1)NCC(=O)N1CC(=O)NC(c2ccccc2)C1 (centres unmarked) [I-12, (E)-N-[2-oxo-2-(3-oxo-5-phenylpiperazin-1-yl)ethyl]-3-[4-(trifluoromethyl)phenyl]prop-2-enamide]	163 nM
O=C(/C=C/c1ccc(C(F)(F)F)cc1)NCC(=O)N1CCC(c2cccnc2)C1 (centres unmarked) [I-71]	1340 nM
CN1[C@@H]2CC[C@H]1CN(C(=O)CNC(=O)/C=C/c1ccc(C(F)(F)F)cc1)C2 [I-122]	640 nM
O=C(/C=C/c1ccc(C(F)(F)F)cc1)NCC(=O)N1CCS(=O)(=O)CC1 [I-9]	1590 nM
CN(C)C(=O)c1cn2c(n1)CN(C(=O)CNC(=O)/C=C/c1ccc(C(F)(F)F)cc1)CC2 [I-146]	93 nM
Cn1cnc2c1CN(C(=O)CNC(=O)/C=C/c1ccc(C(F)(F)F)cc1)C2 [I-67]	141 nM
O=C(/C=C/c1ccc(C(F)(F)F)cc1)NCC(=O)N1CCC(n2cccn2)CC1 [I-73]	228 nM
